PMC6442119, “The antitumor activity of CYB-L10, a human topoisomerase IB catalytic inhibitor” (Journal of Enzyme Inhibition and Medicinal Chemistry, 2019)

Tests used:
HL-60 (TB) = assay: NCI60 assay; assay type: cell-based; conditions: Homo sapiens, Leukemia, 48 h
Experimental: The NCI60 (National Cancer Institute 60) tumor cell drug discovery panel was developed as a tool to assess the anticancer activity of compounds against a range of cell lines derived from nine cancer cell types, including hematological malignancies, lung, central nervous system, melanoma, colorectal, renal, breast, ovarian, and prostate[18]^,[23]^,[24]. CYB-L10 was tested using the protocols by the NCI, which has been described previously. […] The overall antiproliferative potential is quantified as a mean-graph midpoint (MGM).
(§1) It was selected and submitted to National Cancer Institute (NCI, USA) for a developmental therapeutics assay against the 60 clinical tumor cell lines representing nine tissue types (NCI60)[23–25]. The tumor cells were incubated with CYB-L10 for 48 h and stained with sulphorhodamine B dye. Cell growth inhibition (GI50) was calculated relative to the control without compound.

A549/ATCC = assay: NCI60 assay; assay type: cell-based; conditions: Homo sapiens, Non-small cell lung cancer, 48 h
Experimental: as §1, with “CYB-L10 was tested using the protocols by the NCI, which has been described previously. […] The overall antiproliferative potential is quantified as a mean-graph midpoint (MGM). […] It” for “It”

COLO 205 = assay: NCI60 assay; assay type: cell-based; conditions: Homo sapiens; Colon cancer, COLO 205, 48 h
Experimental: as §1, with “CYB-L10 was tested using the protocols by the NCI, which has been described previously. […] The overall antiproliferative potential is quantified as a mean-graph midpoint (MGM). […] It” for “It”

HCT-15 = assay: NCI60 assay; assay type: cell-based; conditions: Homo sapiens; Colon cancer, HCT-15, 48 h
Experimental: as §1, with “CYB-L10 was tested using the protocols by the NCI, which has been described previously. […] The overall antiproliferative potential is quantified as a mean-graph midpoint (MGM). […] It” for “It”

NCI/ADR-RES = assay: NCI60 assay; assay type: cell-based; conditions: Homo sapiens, Ovarian cancer, 48 h
Experimental: as §1, with “CYB-L10 was tested using the protocols by the NCI, which has been described previously. […] The overall antiproliferative potential is quantified as a mean-graph midpoint (MGM). […] It” for “It”

RPMI-8226 = assay: NCI60 assay; assay type: cell-based; conditions: Homo sapiens; Leukemia, RPMI-8226, 48 h
Experimental: as §1, with “CYB-L10 was tested using the protocols by the NCI, which has been described previously. […] The overall antiproliferative potential is quantified as a mean-graph midpoint (MGM). […] It” for “It”

HCT116 = assay: MTT assay; assay type: cell-based; conditions: Homo sapiens, HCT-116; Parental cell line HCT116, MTT, 72 h
HCT116-siTop1 = assay: MTT assay; assay type: cell-based; conditions: Homo sapiens; Resistant subline HCT116-siTop1, MTT, 72 h
DU-145 = assay: MTT assay; assay type: cell-based; conditions: Homo sapiens; Parental cell line DU-145, MTT, 72 h
MCF-7 = assay: MTT assay; assay type: cell-based; conditions: Homo sapiens, MCF7; Parental cell line MCF-7, MTT, 72 h
HepG2/ADR = assay: MTT assay; assay type: cell-based, human
HCT116 cells = assay: Apoptosis analysis, flow cytometry annexin V-FITC/PI; assay type: cell-based, human; conditions: 9 μM, 24 h
Experimental: HCT116 cells (3.0 × 10^5 cells/mL) were grown in culture medium on 6-well plates and incubated in the presence or absence of CYB-L10 (1, 3, and 9 µM) for 24 h. And then, the cells were harvested and washed with cold PBS buffer, resuspended in 1 × binding buffer, and then stained with 5 µL Annexin V-FITC and 5 µL propidium iodide (KeyGEN BioTECH, Nanjing, China) for 15 min in dark. The stained cells were analyzed by using flow cytometry (BD, FACSCalibur, Franklin Lakes, NJ, USA) within 1 h. The experiments were repeated independently for three times.
To estimate the effect of CYB-L10 on apoptosis, flow cytometry analysis using double staining with annexin V-FITC/PI was carried out for HCT116 cells. […] CYB-L10 induced the major population of HCT116 cells into the late apoptotic stage 47.39% at 9 μM concentration.

HCT116 xenograft = assay: In vivo antitumor activity, HCT116 xenograft; set-up: species or system nude mice; conditions: for tumor weight inhibition (TWI): HCT116 xenograft nude mice
Experimental: Athymic nude mice bearing the nu/nu gene were obtained from Laboratory Animal Center of Sun Yat-sen University and maintained in pathogen-free conditions to establish the model of xenografts of HCT116. All animals were used under the Policy on the Care and Use of Laboratory Animal of Sun Yat-sen University. Male nude mice 4–5 weeks old weighing 12–15 g were used. HCT116 tumor preinduced in the mice by subcutaneously injecting of HCT116 cells (100 µL, 1 × 10^7 cells) was implanted. When the implanted tumors had reached a volume of about 80 mm^3, the mice were randomly divided into three groups (n = 5) and administered by i.p. injection at a frequency of once every 3 days. The testing groups were treated with CYB-L10 at 20 mg/kg and 6.7 mg/kg dose, respectively. The control group was treated with an equivalent volume of saline. Tumor volumes (V) were monitored by caliper measurement of the length and width, and calculated using the formula: V = (larger diameter) × (smaller diameter)^2/2, and growth curves were plotted using average tumor volume within each experimental group at the set time points. At the end of treatment, the animals were sacrificed, and the tumors were removed and weighed. The tumor weight inhibition (TWI) was calculated according to the formula: TWI = (1 − Mean tumor weight of the experimental group/Mean tumor weight of the control group) × 100%. Statistical comparisons were conducted using a one-way analysis of variance, followed by Tukey’s test.
A human colon cancer HCT116 xenograft nude mice model was established to evaluate the antitumor efficiency of CYB-L10 in vivo. Mice were randomly divided into three groups and administered i.p. injection at a frequency of once every 3 days. Two groups were treated with CYB-L10 at 20 mg/kg and 6.7 mg/kg dose, respectively. The negative control group was treated with an equivalent volume of saline.

TOP2 = assay: TOP2-mediated relaxation assay; assay type: biochemical; conditions: 25 μM, relaxation of supercoiled pBR322 DNA
Experimental: Figure S1. TOP2-mediated relaxation assay. Lane 1, supercoiled pBR322 DNA alone; Lane 2, DNA
and enzyme; Lanes 3, DNA, enzyme and the positive control etoposide (VP16) at 25 μM; Lanes 4,
DNA, enzyme and CYB-L10 at 25 μM. R: relaxed DNA. Sc: supercoiled DNA.
(1 picture or pasted object on this page, not shown here)

TOP1 = system: TOP1; set-up: method as in PMID 26188908; conditions: compared with CPT; cited from earlier work
RC0.1 = assay: MTT assay

What does the source list for `O=C1c2cccnc2C(=O)c2c1c(C(=O)OCCN1CCOCC1)c1ccccn21` [CYB-L10]?
GI50 (HL-60 (TB)): 240 nM; GI50 (A549/ATCC): 20.5 nM; GI50 (COLO 205): 137 nM; GI50 (HCT-15): 39.5 nM; GI50 (NCI/ADR-RES): 36.8 nM; GI50 (RPMI-8226): 166 nM; GI50 (HCT116): 27 ± 24 nM; GI50 (HCT116-siTop1): 190 ± 92 nM; GI50 (DU-145): 16 ± 10 nM; GI50 (MCF-7): 91 nM; Resistance ratio (HepG2/ADR; GI50 HepG2/ADR / GI50 HepG2): 11.4; GI50 (HepG2/ADR; Homo sapiens, Resistant subline HepG2/ADR, MTT, 72 h): 740 ± 240 nM; A2 quadrant cells (late apoptotic stage) (HCT116 cells): 47.39%; tumor weight inhibition (TWI) (HCT116 xenograft; 6.7 mg/kg i.p. once every 3 days): 27.6%; tumor weight inhibition (TWI) (HCT116 xenograft; 20 mg/kg i.p. once every 3 days, p < 0.05): 38.3%; body weight of the mice (HCT116 xenograft; 20 and 6.7 mg/kg i.p., vs negative control): no obvious loss; tumor volume (HCT116 xenograft; 20 and 6.7 mg/kg i.p., vs negative control, dose-dependent): obviously reduced the tumor volume; inhibition against TOP2 (TOP2): very weak inhibition; TOP1 inhibition (TOP1): higher TOP1 inhibition than CPT; Resistance ratio (RC0.1; GI50 RC0.1 / GI50 DU-145): 40.6; GI50 (RC0.1; Homo sapiens, 72 h, read-out: GI50 ± SD): 650 ± 10 nM
